From patent US20250114367A1, “METHOD OF TREATING HAIR LOSS DISORDERS” (Sun Pharmaceutical Industries, Inc., priority 2023, published 2025)

How the values were obtained:
Assay type in all cases: in vivo, human
[1] = test system: adult subjects with moderate to severe AA; assay: Phase III trial: Clinical Global Impression of Improvement (CGI-I); conditions: non-missing data
Experimental: The CGI-I was assessed by the investigator. Compared to the subject's alopecia areata prior to treatment at baseline, the subject's current state of alopecia areata was assessed according to the investigator's perceived change. The investigator selected 1 of 7 numeric choices representing “Very Much Worse” to “Very Much Improved.” To reduce variability, 1 rater was to perform the CGI-I assessment for the subject for the duration of the study.
(§1) A Phase III trial was conducted to assess the efficacy and safety of CTP-543 in adult subjects with moderate to severe AA. Approximately 440 adult male and female subjects 18 to 65 years of age, inclusive, with moderate to severe AA participated in the study. Subjects with definitive diagnosis of AA, and at least 50% hair loss, as defined by a SALT score ≥50, who met all of the inclusion criteria and none of the exclusion criteria participated in the study.
(§2) The Screening Period lasted up to 28 days prior to initiation of study drug. […] Randomization was stratified by scalp hair loss into 1 of the following 2 categories: 1) partial scalp hair loss (SALT ≥50 and <95), 2) complete or near complete scalp hair loss (SALT ≥95).
(§3) Additional secondary efficacy endpoints included the following: • Relative change in SALT scores from baseline at Weeks 4, 8, 12, 16, 20, and 24. • Percentage of responders (defined as “much improved” or “very much improved”) using the Clinical Global Impression of Improvement (CGI-I) at Weeks 12, 16, 20, and 24. • Percentage of responders (defined as “much improved” or “very much improved”) using the Patient Global Impression of Improvement (PGI-I) at Weeks 12, 16, 20, and 24. • Change from baseline in the Clinical Global Impression of Severity (CGI-S) at Weeks 12, 16, 20, and 24. • Change from baseline in the Patient Global Impression of Severity (PGI-S) at Weeks 12, 16, 20, and 24. • Change from baseline on the Brigham Eyebrow Tool for Alopecia (BETA) score at Weeks 12 and 24. • Change from baseline on the Brigham Eyelash Tool for Alopecia (BELA) score at Weeks 12 and 24. • Percentage of subjects achieving at least a 75% relative reduction in SALT score from baseline at Weeks 12 and 24. • Percentage of subjects achieving at least a 90% relative reduction in SALT score from baseline at Weeks 12 and 24. • Percentage of responders (defined as “satisfied” or “very satisfied”) on the SPRO scale at Weeks 12, 16, and 20. • Change from baseline in the SPRO scale at Weeks 12, 16, 20, and 24. • Percentage of subjects achieving a ≥2-point change from baseline in the SPRO scale at Weeks 12, 16, 20, and 24. • Change from baseline on the individual items of the Hair Quality Patient Reported Outcome (QPRO) scale at Weeks 12, 16, 20, and 24. • Change from baseline in the depression scale of the Hospital Anxiety and Depression Scale (HADS) at Week 24. • Change from baseline in the anxiety scale of the HADS at Week 24. • Percentage of subjects achieving an absolute SALT score of ≤20 at Week 4. • Percentage of subjects achieving an absolute SALT score of ≤10 at Week 24
Subjects with responses of “very much improved” or “much improved” were considered CGI-I responders. […] Detailed data are described below. At each visit, the percentage of CGI-I responders (non-missing data) was as follows: […]

[2] = test system: adult subjects with moderate to severe AA; assay: Phase III trial: Brigham Eyebrow Tool for Alopecia (BETA)
Experimental: The BETA is a clinician-rated scale developed by dermatologists at Brigham and Women's Hospital that assesses the total eyebrow hair present (Tkachenko, E, et al., Brigham Eyebrow Tool for Alopecia: A Reliable Assessment of Eyebrow Alopecia Areata, Journal of Investigative Dermatology Symposium Proceedings (2020) 20, S41-S44). The BETA is calculated based on hair density (range 0 to 3) and surface area of each individual eyebrow. The BETA score is the sum of the right and left eyebrow scores (range 0 (absent) to 6). An expert panel of certified raters at Brigham and Women's Hospital performed central readings based on photographs of the eyebrows provided by the study sites and determined a score for each subject with eyebrow involvement following each visit where an assessment of eyebrow hair presence was assessed. The BETA was performed at baseline, Week 12, and Week 24. If a subject was unable to attend an in-person clinic visit due to COVID-19, the BETA may not have been performed due to the inability to take photographs of the eyebrows.
as §1
(§4) The Screening Period lasted up to 28 days prior to initiation of study drug. […] Randomization was stratified by scalp hair loss into 1 of the following 2 categories: 1) partial scalp hair loss (SALT ≥50 and <95), 2) complete or near complete scalp hair loss (SALT ≥95). […]

[3] = test system: adult subjects with moderate to severe AA; assay: Phase III trial: Patient Global Impression of Improvement (PGI-I); conditions: non-missing data
Experimental: The PGI-I was assessed by the subject. Compared to the subject's AA prior to treatment at baseline, the subject's current state of AA was assessed according to his/her perceived change. The subject selected 1 of 7 numeric choices representing “Very Much Worse” to “Very Much Improved.” If a subject was unable to attend an in-person clinic visit due to COVID-19, the PGI-I was to be performed via a virtual visit with video capability.
as §1, §2, §3
Detailed data are described below.

[4] = test system: adult subjects with moderate to severe AA; assay: Phase III trial: Brigham Eyelash Tool for Alopecia (BELA)
Experimental: The BELA is a clinician-rated scale developed by dermatologists at Brigham and Women's Hospital that assesses the total eyelash hair present Manjaly, P. et al., Development and validation of the Brigham Eyelash Tool for Alopecia (BELA): A measure of eyelash alopecia areata, J Am Acad Dermatol (2021) 1-2. The BELA is calculated based on grade values (range 0 to 3) and distribution. The BELA score is the sum of the individual scores for the left and right eyes (range 0 (absent) to 6). The same expert panel of certified raters at Brigham and Women's Hospital who performed the BETA assessment also performed central readings based on photographs of the eyelashes and determined a score for each subject with eyelash involvement following each visit where an assessment of eyelash hair presence was assessed. The BELA was performed at baseline, Week 12, and Week 24. If a subject was unable to attend an in-person clinic visit due to COVID-19, the BELA may not have been performed due to the inability to take photographs of the eyelashes.
as §1, §4

For [2H]C1([2H])C([C@@H](CC#N)n2cc(-c3ncnc4[nH]ccc34)cn2)C([2H])([2H])C([2H])([2H])C1([2H])[2H] [CTP-543, (R)-3-(4-(7H-pyrrolo[2,3-d]pyrimidin-4-yl)-1H-pyrazol-1-yl)-3-(cyclopentyl-2,2,3,3,4,4,5,5-d8) propanenitrile], the “percentage of CGI-I responders (very much improved or much improved)” value (“percentage of CGI-I responders” for short) ([1]; Week 24, 8 mg BID) was 54.1%, the “percentage of CGI-I responders” value ([1]; Week 24, 12 mg BID) was 61.7% and the “percentage of CGI-I responders” value ([1]; week 12, 8 mg BID) was 38.0%. For the same molecule, the “percentage of CGI-I responders” value ([1]; week 12, 12 mg BID) was 44.3%, the “percentage of CGI-I responders” value ([1]; week 16, 8 mg BID) was 45.0% and the “percentage of CGI-I responders” value ([1]; week 16, 12 mg BID) was 52.0%. For the same molecule, the “percentage of CGI-I responders” value ([1]; week 20, 8 mg BID) was 50.0%, the “percentage of CGI-I responders” value ([1]; week 20, 12 mg BID) was 9.0% and the “BETA score, LS mean change from baseline” value ([2]; Week 12, 8 mg BID) was 0.8. For the same molecule, the “BETA score, LS mean change from baseline” value ([2]; Week 12, 12 mg BID) was 0.8, the “BETA score, LS mean change from baseline” value ([2]; Week 24, 8 mg BID) was 1.1 and the “BETA score, LS mean change from baseline” value ([2]; Week 24, 12 mg BID) was 1.4. The “percentage of PGI-I responders (very much improved or much improved)” value (“percentage of PGI-I responders” below) ([3]; Week 24, 8 mg BID) was 50.9%, the “percentage of PGI-I responders” value ([3]; Week 24, 12 mg BID) was 68.3% and the “percentage of PGI-I responders” value ([3]; week 12, 8 mg BID) was 43.3%. The “percentage of PGI-I responders” value ([3]; week 12, 12 mg BID) was 49.2%, the “percentage of PGI-I responders” value ([3]; week 16, 8 mg BID) was 46.2% and the “percentage of PGI-I responders” value ([3]; week 16, 12 mg BID) was 59.8%. For the same molecule, the “percentage of PGI-I responders” value ([3]; week 20, 8 mg BID) was 48.7%, the “percentage of PGI-I responders” value ([3]; week 20, 12 mg BID) was 64.4% and the “BELA score, LS mean change from baseline” value ([4]; Week 12, 8 mg BID) was 0.9. For the same molecule, the “BELA score, LS mean change from baseline” value ([4]; Week 12, 12 mg BID) was 1.0, the “BELA score, LS mean change from baseline” value ([4]; Week 24, 8 mg BID) was 1.4 and the “BELA score, LS mean change from baseline” value ([4]; Week 24, 12 mg BID) was 1.5.
